Where no end group is shown, it is not given here. [ ]: non-standard residue; d: D form. Aib = CC(C)(N)C(=O)O
Experiments:
C57BL/6 mice given MPTP = test: Immunohistochemistry for TH in the substantia nigra pars compacta, MPTP Parkinson mouse model; type: in vivo; conditions: 10 nmol/kg i.p. once daily for 2 weeks, FIG. 4, N=6 per group
Description: A standard model to induce Parkinson like symptoms in mice is the injection of the chemical (MPTP) (Li et al., 2009). This chemical impairs or kills neurons in the brain that produce dopamine. The mice develop motor impairments, and the dopaminergic neurons in the brain are reduced in numbers and function. The enzyme tyrosine hydroxylase (TH) is required to synthesise dopamine. A loss of TH signifies a loss of dopamine production (Harkavyi et al., 2008).
Adult male C57BL/6 mice were given the dopaminergic toxin MPTP (20 mg/kg in 0.1 mL of PBS i.p. at 2-h intervals of 4 doses MPTP; Sigma) or vehicle (PBS) for one day. […]
Immunohistochemistry for TH in the Substantia Nigra Pars Compacta and the Striatum Six animals per group were analysed for expression of tyrosine hydroxylase (TH), a marker for dopamine production. Coronal brain sections (20 μm) from striatum (bregma […]) and SNpc (bregma […]) were analysed by immunohistochemistry using antibodies recognising TH.
Sections were cut on a cryostat and postfixed in 4% paraformaldehyde, washed in PBS, treated with 0.3% H2O2 in methanol for 20 min, and washed again. […] For each animal, three tissue sections from one level of striatum were stained and analysed for TH-positive fibre innervation. […] Two tissue sections from each level were quantified by immunohistochemistry. […]

APP/PS1 mice [1] = test: Classical Morris water maze test; type: in vivo
Description: Materials and methods in Example 2 are the same as Example 1 except when stated. Reagents used in Example 2 only include antibodies to p-PI3Kp85, PI3Kp85, p-Akt (ser473), Akt, p-GSK3β (Y216), and GSK3β from Abcam, Inc. Cambridge, UK. The antibody to p-tau (AT8) from Thermo Scientific USA. Mouse Anti-β-actin, Anti-Rabbit IgG, Anti-mouse IgG, CY3-Anti-mouse IgG, RIPA Lysate, BCA Protein Assay Kit, DAPI staining solution and Anti-fluorescence decay agent from Boster (Wuhan, China).
Classical Morris water maze (MWM) test was used to investigate spatial reference memory of mouse. The water maze mainly included a stainless steel pool and a platform in the pool for escape. There were several landmarks fixed to the walls of the water maze. The pool was filled with tap water at 22±2° C. The first phase was acquisition trial phase which was consisted of five training days (days 1-5) and four trials each day. The pool (diameter, 120 cm; high, 50 cm) was divided into four quadrants and the escape platform (diameter, 12 cm) hidden 1 cm beneath the water surface was placed in the center of the first quadrant. […] The escape latencies were recorded by Ethovision 3.0 software system (Noldus Information Technology, the Netherlands). […] The percentage of swimming time in target quadrant (the first quadrant) and frequency of platform crossing were recorded. […] Swimming time to target was recorded.

APP/PS1 mice [2] = test: In vivo hippocampal measurements of L-LTP in AD mice; conditions: N=6 per group
Description: Materials and methods in Example 2 are the same as Example 1 except when stated. Reagents used in Example 2 only include antibodies to p-PI3Kp85, PI3Kp85, p-Akt (ser473), Akt, p-GSK3β ([…]), and GSK3β from Abcam, Inc. Cambridge, UK. The antibody to p-tau (AT8) from Thermo Scientific USA. Mouse Anti-β-actin, Anti-Rabbit IgG, Anti-mouse IgG, CY3-Anti-mouse IgG, RIPA Lysate, BCA Protein Assay Kit, DAPI staining solution and Anti-fluorescence decay agent from Boster (Wuhan, China). Mice were anesthetized with urethane (Sigma, UK, 1.5 g/kg, i.p.) and placed in a stereotaxic apparatus (RWD Life Science, China) for L-LTP recording. Cut off the scalp and expose the skull, small holes were drilled on one side of the skull (2.0 mm posterior to bregma and 1.5 mm lateral to the midline). […] Baseline fEPSPs were elicited by test stimuli at an interval of 30 seconds and 30 minutes fEPSPs were recorded to observe whether the underlying synaptic transmission is affected. […] The change in PPF ratio, calculated by dividing the slope of the second fEPSP by the slope of the first fEPSP, is viewed to be related with the changes in neurotransmitter release from presynaptic terminals. […] The fEPSPs were recorded for 180 minutes after HFS. All events were recorded by a biological signal processing system (Chengdu Instruments Ltd, China). […]

For “YXEGTFTSDYSIYLDKQAAXEFVNWLLAGGPSSGAPPPSKRRQRRKKRGY-NH2 (Y[Aib]EGTFTSDYSIYLDKQAA[Aib]EFVNWLLAGGPSSGAPPPSKRRQRRKKRGY-NH2) [DA5, No. 12; X=aminoisobutyric acid]”, the “MPTP-induced reduction of TH in the substantia nigra, pars compacta (protection of dopaminergic neurons)” value (C57BL/6 mice given MPTP) was “protected dopaminergic neurons at a greater rate than the single GIP and GLP-1 analogues”, the “probe test, recall of the escape route (classical Morris water maze)” value (APP/PS1 mice [1]; APP/PS1 mice vs APP/PS1-saline, FIG. 7c, 7d) was “recalled the escape route to a greater extent than APP/PS1-saline mice” and the “disorder in spatial memory (classical Morris water maze)” value (APP/PS1 mice [1]; APP/PS1 mice, FIG. 7, N=8-14 per group) was “ameliorated”. The “levels of L-LTP post neuronal stimuli” value (APP/PS1 mice [2]; APP/PS1 mice, FIG. 9b) was “maintained high levels of L-LTP post neuronal stimuli” and the “depression of L-LTP in the hippocampus” value (APP/PS1 mice [2]; APP/PS1 transgenic mice, pre-treatment, FIG. 9a) was “able to reverse the depression of L-LTP”.
